Assay results reported in publication PMC8457056, “Remodeling of the Fibrillation Pathway of α‐Synuclein by Interaction with Antimicrobial Peptide LL‐III” (Chemistry (Weinheim an Der Bergstrasse, Germany), 2021).

Legend:
[1] = test system: α‐Syn; experiment: atomic force microscopy of α-Syn fibrils; assay type: biochemical, human; settings: 20 μM α-Syn, dried on mica, 20 mM sodium acetate, pH 5.0, room temperature
Protocol: To verify inhibition of α‐Syn fibril formation upon addition of LL‐III, atomic force microscopy (AFM) experiments were carried out. To this end, a 20 μM solution of α‐Syn in the absence and in the presence of LL‐III was dried on a mica surface and AFM pictures were recorded. Under such conditions, liquid droplets could not be detected. In the absence of LL‐III, short fibril‐like structures were observed (Figure S3).
The lyophilized powders of the labeled and unlabeled LL-III peptide were purchased from GenScript, Germany.
The sequence of the LL-III peptide is NH2-VNWKKIL GKIIKVVK -CONH2. In th e labeled peptide, the fluorophore 6-carboxyfluorescein (FAM) was covalently attached to the N-terminus of the peptide. […]
The expression and purification of α-synuclein (α-Syn) was carried out as described before.[1,2] […] A single colony was picked and inoculated into 100 m l LB medium containing 150 μg/m l ampicillin and grown at 37°C with shaking at 250 rpm until the absorbance at 600 nm reached 0.8. […]
Phase-contrast light and fluorescence microscopy
The light and fluorescence microscopy experiments were performed using an Eclipse TE2000- U (Nikon Inc.) op-tical microscope with a Nikon Plan Fluor 20x objective (NA 0.45 WD 7.4) coupled to an TIS DMK 23UX249 camera. […] Fluorescence microscopy experiments were performed using 6-carboxyfluorescein- l abel ed LL- III (FAM-LL-III) exciting at 488 nm. […]

[2] = test system: several bacterial strains, fungi; settings: ref [28]; cited from earlier work
Text: (§1) Antimicrobial peptides (AMPs) are a particular class of disordered proteins. They form an important part of the immune system of all living organisms and are considered as the first line of defense against infections caused by pathogens.[25, 26, 27] […] The LL‐III is a posi ...

[3] = test system: cancer cells; settings: cited from earlier work
Text: as §1

[4] = ref [28]; cited from earlier work
Text: as §1

NH2-VNWKKIL GKIIKVVK -CONH2 [LL‐III]
fibrils by AFM ([1]; 200 μM LL-III): some fibrils of smaller size were still visible after drying
fibrils by AFM ([1]; 500 μM LL-III): fibrillar structures could no longer be detected
activity against several bacterial strains, fungi [2]: remarkable activity
cellular localization ([3]; ref [22]): localizing mainly in the nucleolus and in granules
translocation across plasma membrane ([3]; ref [22]): able to translocate across the plasma membrane of cancer cells
activity against cancer cells ([3]; ref [28]): remarkable activity
cytotoxicity [4]: moderate cytotoxicity
